The values below come from USRE47761E1, “Anti-axl antibodies and methods of use” (Genentech, Inc., priority 2010, dated 2019).

In test [1] the test system is cynomolgus Axl. In words: Cross reaction ELISA, cynomolgus Axl. Format: binding. As for the experimental part:
(§1) A-B. Affinity measurement of YW327.6S2 using BIAcore. Association rates (kon) and dissociation rates (koff) were calculated using the one-to-one Langmuir binding model. The equilibrium dissociation constant (Kd) was derived as the […]. C. […] Plates were coated with anti-human IgG Fc, and then incubated with human Axl, Mer, Tyro3 Fcs, mouse or cynomolgus AxlFcs. After washing, isotype control antibody or YW327.6S2 was added and followed by HRP conjugated anti-human IgG. […] FIG. 7D: ELISA. Plates were coated with anti-human IgG Fc and incubated with human Axl-Fc. After washing, Gas6 was added with or without antibodies. Binding of Gas6 was detected by biotylated anti-Gas6 antibody and streptavidin-HRP conjugate. FIG. 7E: FACS. […] Binding of Gas6 to the cell surface was detected by biotylated anti-Gas6 antibody and streptavidin-PE conjugate. […] Phosphorylated Axl was measured by ELISA (upper panel), and phosphorylated Akt by Western Blotting analysis (lower panel). […] Cell viability was measured by CellTiter Glo assay.
ELISA assays were performed as follows: goat anti-human IgG Fc coated plates were blocking with 0.5% BSA, PBS, 0.05% Tween 20 (PBST). […] Secreted Ang-2 and DKK3 was measured using R&D ELISA kit, according to the manufacturer's instruction. Axl expression on cell surface was determined by FACS using standard techniques. […] Samples were analyzed on BD FACScalibur Flow Cytometer.
In general terms: In an ELISA, binding on a coated surface is turned into a signal by an enzyme label.

For test [2], the system named is Akt. In words: Gas6-induced Akt phosphorylation in H1299 cells (Western blotting). The note with it: pre-incubated 4 hrs, Gas6 30 minutes. Format: cell-based, human. As for the experimental part:
as §1

In test [3] the test system is A549 xenograft. The note with it: for reduction in tumor growth as a single agent: A549, FIG. 9A, erlotinib 100 mg/kg/day oral gavage. As for the experimental part:
(§2) Mice were removed from the study when their tumor size reached 800 mm^3, and the animals remaining in each group (% remaining) were plotted. C. […] 12A11 and anti-VEGF was administrated IP at 30 mg/kg and 1 mg/kg, respectively, twice a week, starting when the mean tumor size reached 100 mm^3 (day 0). […] Cell lysates from tumors were analyzed by Western blot for Axl expression. […] Tumors from mice treated as above in D were excised at 0 and 72 hr post dosing and tumor vasculature was visualized by staining with MECA32 immunohistochemistry and quantified by image analysis (expressed as microns square).
All studies were conducted in accordance with the “Guide for the Care and Use of Laboratory Animals” (NIH), and approved by the Institutional Animal Care and Used Committee (IACUC). A total of 5×10^6 (A549) or 10^7 cells in matrigel (MDA-MB-231) were implanted subcutaneously into right flank of nude (A549) or SCID mice (MDA-MB-231), respectively. When the average tumor sized reached 100 mm^3, mice were randomized and divided into different treatment groups (n=10 for each group). Anti-Axl or control IgG1 antibodies were at administrated at 10-30 mg/kg, anti-VEGF at 1-2 mg/kg, via intraperitoneal injection (IP), twice weekly. Erlotinib was administrated by oral gavage at 100 mg/kg/day. Paclitaxel and carboplatin were administrated subcutaneously at 6.25 mg/kg/day for 5 days, and 100 mg/kg for a single dose, respectively, at the beginning of the treatment. Statistic analyses were performed using Anova two-way for comparison of tumor growth in different treatment groups.

For test [4], the system named is A549 xenograft tumors. Kind of test: Cleaved caspase 3 and Ki67 IHC of A549 xenograft tumors. Format: in vivo, mice. The note with it: A549 tumors treated two weeks, versus control. As for the experimental part: B. Kaplan-Meier curve of various treatment groups. […] C. 12A11 enhances the effect of anti-VEGF.
Xenograft tumor samples were fixed in 10% neutral buffered formalin, processed, embedded in paraffin, and sectioned at 4 μm. Thin sections were then treated with primary antibodies for Ki67, cleaved caspase 3 and MECA32, followed by biotinylated secondary antibodies and the DAB chromagen.

The subject of test [5] is tumor vasculature. Kind of test: Intratumoral vascular density (MECA32) in A549 xenograft tumors. Format: in vivo, mice. As for the experimental part: as §2
Tumor samples were stained with MECA32, a pan endothelial cell marker. Images were acquired by the Ariol SL-50 automated slide scanning platform (Genetix Ltd.; Hampshire, UK) at 100× final magnification. Tumor-specific areas were exported for analysis in the Metamorph software package (MDS Analytical Technologies; Ontario, Canada) as individual 8-bit images. The brown DAB-specific staining was isolated from the Hematoxylin counterstain using a blue-normalization algorithm as described (Brey et al, 2003). […] Area measurements were recorded for individual vessels, as well as the tumor and non-tumor areas in each image. Raw values based on image analysis were analyzed using the JMP 8.0 software (SAS Institute, Inc. North Carolina, USA). […]

For test [6], the system named is MDA-MB-231 xenograft. Kind of test: MDA-MB-231 xenograft tumor growth. It is filed as in vivo, SCID mice.
Test [7] has as its system tumor vasculature. In words: Intra-tumoral vascular density (MECA32) in MDA-MB-231 xenograft tumors. The settings on record: MDA-MB-231 tumors. Format: in vivo, SCID mice. As for the experimental part:
(§3) Cell lysates from tumors were used in Western blot analysis for Axl expression. […] F. Axl is highly expressed in infiltrating macrophages of primary human breast cancer. Immunohistochemistry was used to examine 79 primary tumors. 21% of these tumors express high levels of Axl in the infiltrating macrophages. Macrophages were identified by staining with anti-CD68, and expression of Axl on macrophages was determined by anti-Axl/CD68 dual IHC. Serial sections were used. […] Tumor associated macrophages were isolated by sorting for F4/80 positive cells and cultured overnight. Cytokines and chemokines secreted into the medium were measured using the Bio-Plea mouse cytokine assay kit.
Tumor samples were stained with MECA32, a pan endothelial cell marker. Images were acquired by the Ariol SL-50 automated slide scanning platform (Genetix Ltd.; Hampshire, UK) at 100× final magnification. Tumor-specific areas were exported for analysis in the Metamorph software package (MDS Analytical Technologies; Ontario, Canada) as individual 8-bit images. […] Area measurements were recorded for individual vessels, as well as the tumor and non-tumor areas in each image. Raw values based on image analysis were analyzed using the JMP 8.0 software (SAS Institute, Inc. North Carolina, USA). […]

The test system of test [8] is tumor-associated macrophages. In words: Cytokine/chemokine secretion from tumor-associated macrophages of MDA-MB-231 xenografts. It is filed as in vivo, mice. The settings on record: MDA-MB-231 tumors treated one week, 20 mg/kg, versus control antibody. As for the experimental part:
as §3
Tumors were dissected, chopped into small pieces and incubated in RPMI1640 medium with 2.5% FBS, 0.2 units/ml Liberase Blendzymes II and 5 units/ml DNaseI, (Roche). Tumor cells were disassociated using MACS Dissociator (Miltenyi Biotec) and maintained for 20 minutes at room temperature. EDTA (final concentration 0.002%) was added to stop the reaction. Single cell suspensions were prepared, and red blood cells were removed using RBC lysis buffer (eBioscience). […] Cultured media was collected and the levels of cytokines and chemokines were determined using Bio-Plex mouse cytokine assays (Bio-Rad) according to manufacturer's instructions.

Test [9] relates to MDA-MB-231 breast cancer cells. Kind of test: MDA-MB-231 metastasis after tail vein injection (bioluminescence). Format: in vivo, SCID mice. As for the experimental part:
A. Bioluminescence imaging 4 weeks after tail vein injection of tumor cells. Mice were injected intraperitoneally (i.p.) with 200 μL of 25 mg/ml D-luciferin (Invitrogen) in PBS and were anesthetized during imaging using isoflurane via nose cone. Bioluminescence images were acquired on the Photon Imager (Biospace Lab, Paris, France) that has an intensified charge-coupled device camera. B. H & E staining of the tibia sections.
For metastasis studies, 5×10^5 MDA-MB-231 cells stably transfected with a luciferase reporter gene (Li et al, 2009) were implanted into SCID mice via tail vein injection. Metastasis of tumor cells to various organs was monitor by bioluminescence detection as described (Li et al, 2009).

Test [10] addresses T1, human Axl ECD-His protein (human, UniProt P30530 26-451).
T1 construct: also called Hu Axl; not shown: His tag
Kind of test: SPR (BIAcore-3000); anti-Axl human IgG captured by anti-human IgG, human Axl ECD-His injected.

Entries after “also recorded” stand apart in the source; their conditions may differ.

T1 sequence (P30530 other isoform, or with tags, fused parts or gaps): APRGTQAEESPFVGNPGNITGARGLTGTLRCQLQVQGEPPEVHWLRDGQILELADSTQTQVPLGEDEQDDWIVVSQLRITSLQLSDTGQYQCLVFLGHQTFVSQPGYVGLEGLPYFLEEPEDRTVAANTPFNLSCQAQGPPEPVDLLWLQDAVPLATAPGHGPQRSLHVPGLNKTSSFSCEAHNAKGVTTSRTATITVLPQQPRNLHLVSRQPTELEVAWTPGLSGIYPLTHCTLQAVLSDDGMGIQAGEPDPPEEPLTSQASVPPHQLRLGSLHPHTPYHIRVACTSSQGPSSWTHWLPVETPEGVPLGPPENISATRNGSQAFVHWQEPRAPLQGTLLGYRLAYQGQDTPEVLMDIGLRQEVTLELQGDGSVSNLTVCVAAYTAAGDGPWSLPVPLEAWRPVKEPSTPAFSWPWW

Take “YW327.6S2: Affinity matured phage-derived human anti-Axl monoclonal antibody, from clone YW327.6”: in test [1], the “binding to cynomolgus Axl” value is on record as “binds; also recorded: cross reacts”. In addition, the “Gas6-induced phosphorylation of Akt” value in test [2] is given as “blocks”. In addition, the “reduction in tumor growth as a single agent” value in test [3] amounted to 30%. Further, the “tumor growth inhibition by single agent” value in test [3] (A549, YW327.6S2 10 mg/kg or anti-VEGF 1 mg/kg IP twice a week) is 30%. For the same molecule, in [3] (A549, co-administration with anti-VEGF), the “duration of tumor stasis after treatment cessation” value is reported as “at least 4 weeks”. The “effect on the anti-tumor effect of anti-VEGF” value in test [3] (A549, combination with anti-VEGF 1 mg/kg) is “enhances”. Also, the “tumor re-growth from last dose to day 85” value in test [3] (A549, in combination with anti-VEGF) is listed as “no tumor re-growth”. Also, the “survival at end of experiment (Kaplan-Meier, tumor size 800 mm^3 cutoff)” value in [3] (A549, in combination with anti-VEGF, day 85) is “survival of all the animals”. Besides, the “delay of tumor growth compared to a single agent” value in [3] (A549, in combination with anti-VEGF, dosed 60 days, followed to day 85) is recorded as “significantly delayed tumor growth”. In addition, in [3] (mouse, in vivo), the “reduction of tumor growth rate in combination with erlotinib” value was “more than 50%” and the “tumor growth inhibition by the combination treatment” value worked out at 60%. In [4], the Ki67 positive nuclei entry is given as “no significant difference” and the “cleaved caspase 3 (CC3), apoptosis” value is recorded as “increased; also recorded: induces apoptosis”. Besides, in test [5], the “intratumoral vascular density, antibody alone” value is “did not significantly reduced” and the “intratumoral vascular density, combination with anti-VEGF” value is listed as “significant decrease; also recorded: enhances the effect of anti-VEGF in reducing intra-tumoral vascular density”. Besides, the “reduction of tumor growth, antibody alone” value in test [6] (20 mg/kg IP twice a week) was found to be 25%. Further, the “reduction in tumor growth, combination therapy with anti-VEGF” value in test [6] (20 mg/kg with anti-VEGF 2 mg/kg) came to 50%. Further, in [7], the “intra-tumoral vascular density, single antibody versus control” value was “significantly reduced; also recorded: reduces” and the “tumor associated vascular density, combination with anti-VEGF” value is “further reduction”. In addition, the “inflammatory cytokines and chemokines produced by TAMs” value in test [8] was “much lower levels; also recorded: inhibits”. The “sites detected by bioluminescence, total for the entire group” value in test [9] (four weeks after injection, control group total 18) is recorded as 7. Moreover, the “metastasis of MDA-MB-231 cells (sites detected by bioluminescence), in words” value in [9] (versus control antibody) is recorded as “significantly reduced; also recorded: reduces”.

`C#Cc1cccc(Nc2ncnc3cc(OCCOC)c(OCCOC)cc23)c1` [erlotinib, reference compound]: in test [3], the “reduction in tumor growth as a single agent” value is 30%.

B1: YW327.6S2 (antibody, V domains shown)
VH: EVQLVESGGGLVQPGGSLRLSCAASGFSLSGSWIHWVRQAPGKGLEWVGWINPYRGYAYYADSVKGRFTISADTSKNTAYLQMNSLRAEDTAVYYCAREYSGWGGSSVGYAMDYWGQGTLV
VL: DIQMTQSPSSLSASVGDRVTITCRASQDVSTAVAWYQQKPGKAPKLLIYSASFLYSGVPSRFSGSGSGTDFTLTISSLQPEDFATYYCQQSYTTPPTFGQGTKVEIKR
For B1, in test [10], the Kd was ~1 nM.

Broadly, the Kd is the equilibrium constant for the complex coming apart. Low values mean a tighter complex, high ones a looser complex.
